Results as given in publication PMC9501377, “New Diarylamine KV10.1 Inhibitors and Their Anticancer Potential” (Pharmaceutics, 2022).

How the values were obtained:
Panc-1 cells = assay: Cell growth by Incucyte confluence, Panc-1; type: cell-based, human; details: 48–72 h; for reduction of proliferation of Panc-1 cells: 25 µM
Protocol: (§1) MCF-7 (DSMZ ACC 115) and PANC-1 (DSMZ ACC 783) cells were grown as recommended by the cell supplier at 5% CO2 and 37 °C in a humidified atmosphere. For determining cell growth, cells were seeded in 96-well culture plates (Corning, Corning, NY, USA) at a density of 10^4 cells/well. After 24 h, the compounds were added diluted in medium. Six wells per condition were used. Four images of each well were collected at 1 h intervals for 48–72 h. Two biological replicates were performed. Images were acquired using an Incucyte device (Sartorius/Essen biosciences). Cell confluence was calculated using the Incucyte software on the phase contrast images. The results are expressed as percent confluence per well normalised to the value with no compounds added.

hERG = hERG (Homo sapiens, UniProt Q12809); assay: Whole-cell patch-clamp, hERG inhibition; type: cell-based; set-up: expressed in transfected cells; details: dose–response fit
KV10.1 (Eag1) = target: T1, KV10.1 (Eag1) (Homo sapiens, UniProt O95259); assay: Whole-cell patch-clamp on stably transfected HEK-293 cells expressing KV10.1; type: cell-based; details: for inhibition at 10 µM / inhibition at 1 µM: HEK293; for IC50: whole-cell patch-clamp, dose–response fit
T1 construct: expressed in transfected cells; host or cells: HEK-293 (stably transfected)
T1 sequence (O95259 1-962 isoform O95259-2): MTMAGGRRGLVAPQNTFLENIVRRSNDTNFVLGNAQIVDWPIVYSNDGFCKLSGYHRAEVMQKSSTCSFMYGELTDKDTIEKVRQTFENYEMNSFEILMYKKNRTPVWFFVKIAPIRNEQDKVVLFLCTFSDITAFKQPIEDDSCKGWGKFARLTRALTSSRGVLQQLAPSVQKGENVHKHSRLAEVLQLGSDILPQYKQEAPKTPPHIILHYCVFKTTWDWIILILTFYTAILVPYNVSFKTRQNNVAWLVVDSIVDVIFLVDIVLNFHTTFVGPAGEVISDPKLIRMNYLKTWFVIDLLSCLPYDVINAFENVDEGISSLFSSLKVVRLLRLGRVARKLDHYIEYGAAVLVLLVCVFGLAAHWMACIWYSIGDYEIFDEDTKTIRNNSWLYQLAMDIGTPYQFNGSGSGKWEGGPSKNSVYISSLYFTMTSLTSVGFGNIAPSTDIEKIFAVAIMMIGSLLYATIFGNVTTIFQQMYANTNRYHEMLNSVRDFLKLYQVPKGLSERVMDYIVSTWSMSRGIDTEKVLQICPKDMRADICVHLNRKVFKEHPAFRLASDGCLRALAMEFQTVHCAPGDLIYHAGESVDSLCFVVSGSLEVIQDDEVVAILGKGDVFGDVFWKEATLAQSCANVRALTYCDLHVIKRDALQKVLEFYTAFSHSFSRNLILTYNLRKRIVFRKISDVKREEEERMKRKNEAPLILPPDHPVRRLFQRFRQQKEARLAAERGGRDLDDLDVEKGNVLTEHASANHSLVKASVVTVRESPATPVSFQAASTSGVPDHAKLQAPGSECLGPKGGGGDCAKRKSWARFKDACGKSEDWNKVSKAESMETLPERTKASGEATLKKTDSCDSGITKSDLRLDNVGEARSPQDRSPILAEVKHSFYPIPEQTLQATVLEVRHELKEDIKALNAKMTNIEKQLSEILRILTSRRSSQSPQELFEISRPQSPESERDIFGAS
Protocol: For whole-cell patch-clamp measurements, stably transfected HEK-293 cells expressing KV10.1 [26, 27, 28] were grown in DMEM with 10% FCS and 300 µg/mL Zeocin on glass coverslips coated with fibronectin. All experiments were conducted at room temperature under perfusion by gravity with extracellular solution (160 mM NaCl, 2.5 mM KCl, 2 mM CaCl2, 1 mM MgCl2, 10 mM Hepes pH 7.4 with NaOH, 8 mM glucose). Pipettes were made from #1 glass capillaries (WPI) and had 1–3 MΩ resistance. The intracellular solution contained 100 mM KCl, 45 mM N-methyl-D-glucamine, 10 mM 1,2-bis(o-aminophenoxy)ethane-N,N,N′,N′-tetraacetic acid (BAPTA), 10 mM Hepes pH 7.35. Stimulation was applied and data were acquired with an EPC10 Plus amplifier (HEKA Elektronik) controlled with Patch Master software. Compounds were applied with an 8-channel fast solution exchanger (ALA). Compounds were prepared to a stock concentration of 10 mM in DMSO. The control solution contained 0.5% DMSO. Stimuli consisted of 500 ms depolarizations to +40 mV.
All electrophysiological data are presented as means ± SEM of n ≥ 3 independent experiments unless otherwise indicated. Oocyte data were analysed using pClamp Clampfit 10.4 (Molecular Devices, Downingtown, PA, USA) and OriginPro 9 (Originlab, Northampton, MA, USA) or GraphPad Prism 8 software (GraphPad Software, Inc., San Diego, CA, USA). Patch-clamp data analysis was performed using FitMaster (HEKA Electronics), IgorPro (Wavemetrics, Inc., Lake Oswego, OR, USA) and GraphPad Prism 9 (GraphPad Software, Inc., San Diego, CA, USA). The Dunnett test and one-way ANOVA were performed to calculate the significance of the induced inhibition compared to the control (p < 0.05).

MCF-7 cells = assay: Cell growth by Incucyte confluence, MCF-7; type: cell-based, human; details: 48–72 h; for reduction of proliferation of MCF-7 cells: 25 µM
Protocol: as §1

[1] = concentrations higher than 25 µM
[2] = 10 μM, HEK-293 cells, patch-clamp, mean ± SEM
[3] = HEK-293 cells, patch-clamp, mean ± SEM

hERG, sequence (Q12809 whole entry): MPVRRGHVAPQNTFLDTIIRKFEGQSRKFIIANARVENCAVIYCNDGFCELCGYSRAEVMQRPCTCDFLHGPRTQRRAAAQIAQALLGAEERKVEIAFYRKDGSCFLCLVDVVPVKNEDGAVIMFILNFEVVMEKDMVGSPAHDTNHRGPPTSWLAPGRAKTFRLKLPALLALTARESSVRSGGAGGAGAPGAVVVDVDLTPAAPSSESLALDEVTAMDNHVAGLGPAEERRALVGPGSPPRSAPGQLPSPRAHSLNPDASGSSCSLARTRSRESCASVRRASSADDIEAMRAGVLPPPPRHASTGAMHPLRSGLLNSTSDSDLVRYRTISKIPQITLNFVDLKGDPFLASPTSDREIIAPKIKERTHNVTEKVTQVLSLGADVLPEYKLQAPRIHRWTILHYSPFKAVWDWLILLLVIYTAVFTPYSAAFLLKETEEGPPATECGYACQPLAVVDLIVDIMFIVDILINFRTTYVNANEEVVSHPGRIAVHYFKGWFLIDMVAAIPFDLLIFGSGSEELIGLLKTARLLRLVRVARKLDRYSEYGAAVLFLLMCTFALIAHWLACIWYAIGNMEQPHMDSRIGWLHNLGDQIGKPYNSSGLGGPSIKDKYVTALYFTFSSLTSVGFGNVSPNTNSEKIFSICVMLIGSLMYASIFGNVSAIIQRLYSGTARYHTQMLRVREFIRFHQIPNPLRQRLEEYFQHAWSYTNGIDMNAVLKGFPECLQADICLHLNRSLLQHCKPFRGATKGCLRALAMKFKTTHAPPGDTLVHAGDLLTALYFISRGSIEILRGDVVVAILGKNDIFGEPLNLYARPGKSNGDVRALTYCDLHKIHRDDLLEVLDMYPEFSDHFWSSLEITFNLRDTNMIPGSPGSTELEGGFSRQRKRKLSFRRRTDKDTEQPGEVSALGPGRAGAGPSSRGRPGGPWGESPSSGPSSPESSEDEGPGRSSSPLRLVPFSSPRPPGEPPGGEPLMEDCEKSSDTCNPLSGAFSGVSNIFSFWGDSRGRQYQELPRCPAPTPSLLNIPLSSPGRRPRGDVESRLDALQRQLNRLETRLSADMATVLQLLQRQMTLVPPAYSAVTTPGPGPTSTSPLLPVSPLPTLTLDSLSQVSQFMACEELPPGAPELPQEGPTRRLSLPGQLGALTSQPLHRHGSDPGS

Compound | IC50 (hERG) [nM] | inhibition at 10 µM (KV10.1 (Eag1); [2]) [%] | IC50 (KV10.1 (Eag1)) [nM] | inhibition at 1 µM (KV10.1 (Eag1); [3]) [%] | other results
CCN(CC)CCOc1ccc(Nc2ccc(C(F)(F)F)cc2[N+](=O)[O-])cc1 [Compound 17a, N-(4-(2-(Diethylamino)ethoxy)phenyl)-2-nitro-4-(trifluoromethyl)aniline] | 232 | 86.2 ± 6.8 | 568 |  | reduction of proliferation of Panc-1 cells (Panc-1 cells): approximately half; inhibition of growth of Panc-1 cells (Panc-1 cells; [1]): approximately 50%; reduction of proliferation of MCF-7 cells (MCF-7 cells): approximately half; inhibition of growth of MCF-7 cells (MCF-7 cells; [1]): approximately 50%
CCN(CC)CCOc1c(Cl)cc(Nc2ccc(C(F)(F)F)cc2[N+](=O)[O-])cc1Cl [Compound 17c, 3,5-Dichloro-4-(2-(diethylamino)ethoxy)-N-(2-nitro-4-(trifluoromethyl)phenyl)aniline] |  |  |  | 66.5 ± 5.5 | 
CN(C)CCOc1ccc(Nc2ccc(C(F)(F)F)cc2[N+](=O)[O-])cc1 [Compound 18a, N-(4-(2-(Dimethylamino)ethoxy)phenyl)-2-nitro-4-(trifluoromethyl)aniline] | 177 | 81.4 ± 5.6 | 892 |  | 
CN(C)CCOc1c(Br)cc(Nc2ccc(C(F)(F)F)cc2[N+](=O)[O-])cc1Br [Compound 18b, 3,5-Dibromo-4-(2-(dimethylamino)ethoxy)-N-(2-nitro-4-(trifluoromethyl)phenyl)aniline] | 4.9 |  | 216 | 73.5 ± 0.5 | reduction of proliferation of Panc-1 cells (Panc-1 cells): approximately half; reduction of proliferation of MCF-7 cells (MCF-7 cells): approximately half
CN(C)CCOc1c(Cl)cc(Nc2ccc(C(F)(F)F)cc2[N+](=O)[O-])cc1Cl [Compound 18c, 3,5-Dichloro-4-(2-(dimethylamino)ethoxy)-N-(2-nitro-4-(trifluoromethyl)phenyl)aniline] |  |  |  | 28.4 ± 12.1 | 
O=[N+]([O-])c1cc(C(F)(F)F)ccc1Nc1ccc(OCCN2CCCC2)cc1 [Compound 19, 2-Nitro-N-(4-(2-(pyrrolidin-1-yl)ethoxy)phenyl)-4-(trifluoromethyl)aniline] |  | 68.4 ± 14.8 |  |  | 
O=[N+]([O-])c1cc(C(F)(F)F)ccc1Nc1ccc(OCCN2CCCCC2)cc1 [Compound 20, 2-Nitro-N-(4-(2-(piperidin-1-yl)ethoxy)phenyl)-4-(trifluoromethyl)aniline] |  | 65 ± 6 |  |  | 
O=[N+]([O-])c1cc(C(F)(F)F)ccc1Nc1ccc(OCCN2CCCCCC2)cc1 [Compound 21, N-(4-(2-(Azepan-1-yl)ethoxy)phenyl)-2-nitro-4-(trifluoromethyl)aniline] |  | 71 ± 4.12 |  |  | 
Methyl 2-((4-(2-hydroxy-3-morpholinopropoxy)phenyl)amino)benzoate [Compound 5e] |  |  |  |  | % of Kv10.1 Inhibition at 10 μM (HEK-293 Cells) (KV10.1 (Eag1); [2]): 12.6 ± 6.4%
